The assay has as its target Lysine-specific histone demethylase 1A (Homo sapiens, UniProt O60341). The experiment in a line: In Vitro Enzyme Inhibition Assay: This assay determines the ability of a test compound to inhibit LSD1 demethylase activity.

Molecules are shown by their SMILES.

The compound `Cn1c(N2CCC(N)CC2)nc(-c2ccc(C#N)c(F)c2)c(-c2ccc3c(ccn3C)c2)c1=O` displayed an IC50 below 100 nM. `Cn1c(N2CCC(N)CC2)nc(-c2ccc(C#N)c(F)c2)c(-c2ccc3cc[nH]c3c2)c1=O` gave an IC50 below 100 nM. As for `Cn1c(N2CCC(N)CC2)nc(-c2ccc(C#N)c(F)c2)c(-c2ccc3c(cnn3C)c2)c1=O`, the figure is below 100 nM; as for `Cn1c(N2CCC(N)CC2)nc(-c2ccc(C#N)cc2)c(-c2ccc3c(cnn3C)c2)c1=O`, below 100 nM; as for `Cn1c(N2CCC(N)CC2)nc(-c2ccc(C#N)c(F)c2)c(-c2ccc(C(F)(F)F)nc2)c1=O`, below 100 nM.

`Cn1c(N2CCC(N)CC2)nc(-c2ccc(O)cc2)c(-c2ccc3c(ccn3C)c2)c1=O` registered an IC50 above 10000 nM. `Cn1cc2cc(-c3c(-c4ccc(C#N)cc4)nc(N4CCC(N)CC4)n(C)c3=O)ccc2n1` returned an IC50 below 100 nM.

One may read the IC50 as the concentration that gives 50% inhibition. A high value points to weaker potency in that assay.

Values taken from ChEMBL document CHEMBL5725765, “Inhibitors of lysine specific demethylase-1” (2017).
